pEC50: −log10 of the molar value.
Target: T1, ΔF508-CFTR (Homo sapiens, UniProt P13569, DEL508-508)
T1 construct: expressed in transfected cells
Experiment: Membrane potential optical assay (FRET/VIPR), identification of correction compounds
Format: cell-based
Outline: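 NIH3T3 cells stably expressing ΔF508-CFTR incubated 16 hrs at 37° C in serum-free medium with test compound; 27° C incubation as positive control. CFTR then activated with 10 μM forskolin plus 20 μM genistein in Cl^−-free medium; depolarization read by DiSBAC2(3)/CC2-DMPE FRET on VIPR.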

T1 sequence (P13569 with tags, fused parts or gaps DEL508-508): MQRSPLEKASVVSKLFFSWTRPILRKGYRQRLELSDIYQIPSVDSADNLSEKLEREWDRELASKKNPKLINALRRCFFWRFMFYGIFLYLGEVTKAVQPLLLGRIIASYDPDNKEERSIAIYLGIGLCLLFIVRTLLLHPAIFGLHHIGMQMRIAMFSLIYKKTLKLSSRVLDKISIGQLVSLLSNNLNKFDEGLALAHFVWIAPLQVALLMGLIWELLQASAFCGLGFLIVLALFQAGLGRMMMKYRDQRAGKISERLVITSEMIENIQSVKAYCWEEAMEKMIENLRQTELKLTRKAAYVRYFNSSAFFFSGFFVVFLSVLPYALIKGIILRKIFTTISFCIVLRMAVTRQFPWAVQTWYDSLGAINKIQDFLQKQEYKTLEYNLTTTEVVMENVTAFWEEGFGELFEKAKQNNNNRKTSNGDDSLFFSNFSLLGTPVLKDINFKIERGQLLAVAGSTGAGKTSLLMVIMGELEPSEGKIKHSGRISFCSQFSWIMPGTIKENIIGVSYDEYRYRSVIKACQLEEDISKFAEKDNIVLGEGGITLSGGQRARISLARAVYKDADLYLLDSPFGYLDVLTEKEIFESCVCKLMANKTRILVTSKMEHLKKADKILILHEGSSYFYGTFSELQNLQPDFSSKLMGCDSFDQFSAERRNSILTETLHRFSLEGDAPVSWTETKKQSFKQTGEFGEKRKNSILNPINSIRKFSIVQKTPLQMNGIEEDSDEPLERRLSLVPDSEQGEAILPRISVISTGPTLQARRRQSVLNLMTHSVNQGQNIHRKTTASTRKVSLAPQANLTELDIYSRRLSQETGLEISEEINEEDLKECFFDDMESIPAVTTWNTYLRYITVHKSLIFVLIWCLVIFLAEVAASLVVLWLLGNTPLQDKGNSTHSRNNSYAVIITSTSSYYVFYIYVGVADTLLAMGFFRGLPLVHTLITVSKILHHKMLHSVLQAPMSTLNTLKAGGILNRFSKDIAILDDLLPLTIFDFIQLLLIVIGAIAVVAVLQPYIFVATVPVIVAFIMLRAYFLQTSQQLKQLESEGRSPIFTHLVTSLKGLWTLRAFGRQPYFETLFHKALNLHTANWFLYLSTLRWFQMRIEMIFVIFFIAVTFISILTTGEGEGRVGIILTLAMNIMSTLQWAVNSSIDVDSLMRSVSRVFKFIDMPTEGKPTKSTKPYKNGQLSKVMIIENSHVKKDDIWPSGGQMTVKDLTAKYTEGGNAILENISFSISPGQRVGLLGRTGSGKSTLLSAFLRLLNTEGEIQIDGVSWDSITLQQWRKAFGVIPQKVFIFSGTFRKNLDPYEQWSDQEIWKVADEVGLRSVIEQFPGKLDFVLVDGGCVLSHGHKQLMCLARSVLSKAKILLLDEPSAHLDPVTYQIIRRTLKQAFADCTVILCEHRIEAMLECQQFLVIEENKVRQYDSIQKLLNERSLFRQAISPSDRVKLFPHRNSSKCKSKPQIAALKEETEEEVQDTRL

Row | Structure (SMILES) | pEC50 | Emax (relative efficacy) [%] | % Efficacy (relative efficacy)
1 | CC(c1nc2ccccc2c(=O)n1C)N1CCN(S(=O)(=O)c2ccc(C(F)(F)F)cc2)CC1 (stereo not drawn) [compound 70] | > 5.00 | 25 to 100 | –
2 | CC(c1nc2ccc(C(N)=O)cc2c(=O)n1C)N1CCN(S(=O)(=O)c2ccc(Br)cc2)CC1 (stereo not drawn) [compound 156] | 4.60 to 5.00 | 25 to 100 | –
3 | CCCn1c(C(C)N2CCN(S(=O)(=O)c3ccc(Cl)c([N+](=O)[O-])c3)CC2)nc2ccccc2c1=O (stereo not drawn) [compound 20] | 4.22 to 4.60 | < 25 | –
4 | CC(NC[C@@H]1CCCCN1)c1nc2ccccc2c(=O)n1C (stereo partly drawn) [compound 183] | 4.22 to 4.60 | – | –
5 | CCc1nc2ccc(Cl)cc2c(=O)n1C [compound 88] | 4.22 to 4.60 | < 25 | –
6 | Cc1ccc(S(=O)(=O)N2CCN(C(C)c3nc4ccccc4c(=O)n3C)CC2)cc1 (stereo not drawn) [compound 11] | 4.60 to 5.00 | 25 to 100 | –
7 | CC(c1nc2ccccc2c(=O)n1C)N1CCN(S(=O)(=O)c2ccc(OC(F)(F)F)cc2)CC1 (stereo not drawn) [compound 50] | 4.60 to 5.00 | 25 to 100 | –
8 | COc1ccc(S(=O)(=O)N2CCN(C(C)c3nc(N4CCOCC4)c4ccccc4n3)CC2)cc1 (stereo not drawn) [compound 196] | 4.22 to 4.60 | 25 to 100 | –
9 | COc1ccc2nc(C(C)N3CCN(S(=O)(=O)c4ccc(C)cc4)CC3)n(C)c(=O)c2c1 (stereo not drawn) [compound 134] | 4.60 to 5.00 | 25 to 100 | –
10 | Cc1ccc(S(=O)(=O)N2CCN(C(C)c3nc4ccc(C#N)cc4c(=O)n3C)CC2)cc1 (stereo not drawn) [compound 125] | 4.60 to 5.00 | 25 to 100 | –
11 | COc1ccc(S(=O)(=O)N2CCN(C(C)c3nc(OC4CCCC4)c4ccccc4n3)CC2)cc1 (stereo not drawn) [compound 191] | > 5.00 | – | +++ (“+++” means >100%)
12 | CC(c1nc2ccccc2c(=O)n1C)N1CCN(S(=O)(=O)c2ccccc2Cl)CC1 (stereo not drawn) [compound 229] | 4.22 to 4.60 | 25 to 100 | –
13 | CC(c1nc2ccc(Cl)cc2c(=O)n1C)N1CCN(C(=O)Nc2ccc(Cl)cc2)CC1 (stereo not drawn) [compound 18] | 4.60 to 5.00 | 25 to 100 | –
14 | CCOc1nc(C(C)N2CCN(S(=O)(=O)c3ccc(OC)cc3)CC2)nc2ccccc12 (stereo not drawn) [compound 188] | 4.60 to 5.00 | > 100 | –
15 | COc1ccc(S(=O)(=O)N2CCN(Cc3nc4ccc(Cl)cc4c(=O)n3C)CC2)cc1 [compound 137] | 4.60 to 5.00 | 25 to 100 | –
16 | COc1ccc(S(=O)(=O)N2CCN(C(C)c3nc(N4CCCC4)c4ccccc4n3)CC2)cc1 (stereo not drawn) [compound 333] | 4.60 to 5.00 | 25 to 100 | –
17 | CC(c1nc2ccccc2c(=O)n1C)N1CCN(S(=O)(=O)c2ccc(Oc3ccccc3)nc2)CC1 (stereo not drawn) [compound 267] | 4.22 to 4.60 | < 25 | –
18 | CC(c1nc2ccccc2c(=O)n1C)N1CCC(N)CC1 (stereo not drawn) [compound 180] | 4.22 to 4.60 | < 25 | –
19 | CC(c1nc2ccccc2c(=O)n1C)N1CCN(S(=O)(=O)c2ccc(-c3ccon3)s2)CC1 (stereo not drawn) [compound 269] | 4.22 to 4.60 | < 25 | –
20 | CC(c1nc2ccccc2c(=O)n1C)N1CCN(S(=O)(=O)c2ccc(-c3cc(C(F)(F)F)n(C)n3)s2)CC1 (stereo not drawn) [compound 275] | 4.22 to 4.60 | < 25 | –
21 | COc1ccc(S(=O)(=O)N2CCN(C(C)c3nc4ccc(Cl)cc4c(=O)n3C)CC2)cc1 (stereo not drawn) [compound 62] | > 5.00 | 25 to 100 | –
22 | CC(c1nc2ccccc2c(=O)n1C)N1CCN(S(=O)(=O)c2ccc(-c3ccccc3)cc2)CC1 (stereo not drawn) [compound 242] | 4.22 to 4.60 | < 25 | –
23 | CCCn1c(C(C)OCC)nc2ccccc2c1=O (stereo not drawn) [compound 89] | 4.22 to 4.60 | < 25 | –
24 | Cc1ccc(S(=O)(=O)N2CCN(Cc3nc4ccc(Cl)cc4c(=O)n3C)CC2)cc1 [compound 66] | 4.22 to 4.60 | < 25 | –

Row | Structure (SMILES) | pEC50 | Emax (relative efficacy) [%] | % Efficacy (relative efficacy)
25 | COc1ccc(S(=O)(=O)N2CCN(C(C)c3ncc(-c4ccccc4)c(N4CCCCC4)n3)CC2)cc1 (stereo not drawn) [compound 376] | > 5.00 | 25 to 100 | –
26 | CC(c1nc2ccc(Cl)cc2c(=O)n1C)N1CCN(S(=O)(=O)c2cccc(Cl)c2)CC1 (stereo not drawn) [compound 64] | 4.60 to 5.00 | 25 to 100 | –
27 | COc1ccc(S(=O)(=O)N2CCN(C(C)c3nc4ccc(N)cc4c(=O)n3C)CC2)cc1 (stereo not drawn) [compound 145] | 4.60 to 5.00 | 25 to 100 | –
28 | CCCn1c([C@@H](C)N2CCN(S(=O)(=O)c3ccc(Br)cc3)CC2)nc2ccccc2c1=O [compound 148] | > 5.00 | > 100 | –
29 | COCCn1c(C(C)N2CCN(S(=O)(=O)c3ccc(OC)cc3)CC2)nc2ccccc2c1=O (stereo not drawn) [compound 4] | 4.60 to 5.00 | 25 to 100 | –
30 | COc1ccc(S(=O)(=O)N2CCN(C(C)c3nc(NC4CCCCC4)c4cc(F)ccc4n3)CC2)cc1 (stereo not drawn) [compound 373] | 4.60 to 5.00 | 25 to 100 | –
31 | COc1ccc(S(=O)(=O)N2CCN(C(C)c3nc(N4CCC(CCO)CC4)c4ccccc4n3)CC2)cc1 (stereo not drawn) [compound 363] | 4.60 to 5.00 | > 100 | –
32 | COc1ccc(S(=O)(=O)N2CCN(C(C)c3nc(N4CCCCC4)c4cc(F)ccc4n3)CC2)cc1 (stereo not drawn) [compound 371] | > 5.00 | > 100 | –
33 | CC(c1nc2ccccc2c(=O)n1C)N1CCN(C(=O)Nc2ccccc2)CC1 (stereo not drawn) [compound 31] | 4.60 to 5.00 | < 25 | –
34 | CC(c1nc(OC2CCCC2)c2ccccc2n1)N1CCN(S(=O)(=O)c2ccc(Br)cc2)CC1 (stereo not drawn) [compound 218] | > 5.00 | > 100 | –
35 | CC(c1nc2ccccc2c(=O)n1C)N1CC2CC1CN2 (stereo not drawn) [compound 186] | 4.22 to 4.60 | < 25 | –
36 | CCn1c(C(C)N2CCN(S(=O)(=O)c3ccc(Cl)c([N+](=O)[O-])c3)CC2)nc2ccc(Cl)cc2c1=O (stereo not drawn) [compound 34] | 4.22 to 4.60 | < 25 | –
37 | CC(c1nc2ccccc2c(=O)n1C)N1CCN(S(=O)(=O)c2c(Cl)ccc3nonc23)CC1 (stereo not drawn) [compound 254] | > 5.00 | 25 to 100 | –
38 | CC(c1nc2ccc(Cl)cc2c(=O)n1C)N1CCN(C(=O)c2ccc(Br)cc2)CC1 (stereo not drawn) [compound 17] | 4.60 to 5.00 | 25 to 100 | –
39 | CC(c1nc2ccccc2c(=O)n1C)N(CCN(C)S(=O)(=O)c1ccc(Cl)cc1)S(=O)(=O)c1ccc(Cl)cc1 (stereo not drawn) [compound 201] | 4.22 to 4.60 | < 25 | –
40 | CC(NCCCNS(=O)(=O)c1ccc(Cl)cc1)c1nc2ccccc2c(=O)n1C (stereo not drawn) [compound 173] | 4.22 to 4.60 | 25 to 100 | –
41 | CC(NC1CCN(S(=O)(=O)c2ccc(Br)cc2)CC1)c1nc2ccccc2c(=O)n1C (stereo not drawn) [compound 210] | > 5.00 | > 100 | –
42 | Cn1c(CN2CCN(S(=O)(=O)c3ccccc3)CC2)nc2ccc(Cl)cc2c1=O [compound 65] | 4.60 to 5.00 | < 25 | –
43 | COc1ccc(S(=O)(=O)N2CCN(C(C)c3nc(N4CCC(O)CC4)c4ccccc4n3)CC2)cc1 (stereo not drawn) [compound 346] | 4.22 to 4.60 | 25 to 100 | –
44 | CC(=O)Nc1ccc(S(=O)(=O)N2CCN(C(C)c3nc4cc(Cl)ccc4c(=O)n3C)CC2)cc1 (stereo not drawn) [compound 111] | 4.60 to 5.00 | 25 to 100 | –
45 | CCCn1c(C(C)N2CCN(C(=O)Nc3ccc(OC)cc3OC)CC2)nc2ccccc2c1=O (stereo not drawn) [compound 25] | 4.22 to 4.60 | < 25 | –
46 | COc1ccc(S(=O)(=O)N2CCN(Cc3nc(OC4CCCCC4)c4ccccc4n3)CC2)cc1 [compound 385] | > 5.00 | > 100 | –
47 | CNCCNC(C)c1nc2ccccc2c(=O)n1C (stereo not drawn) [compound 182] | 4.22 to 4.60 | < 25 | –

Source: patent publication US8642609B2, “Modulators of ATP-binding cassette transporters” (Vertex Pharmaceuticals Incorporated, priority 2003, dated 2014)
